Assay results reported in patent US20160304957A1, “TREATMENT AND MODULATION OF GENE EXPRESSION AND SKIN AGING” (DSM NUTRITIONAL PRODUCTS LTD., priority 2006, published 2016).

Test system: HaCaT human keratinocytes
Test: Affymetrix GeneChip microarray, transcriptional response to β-carotene and/or UVA
Type: cell-based
Conditions: UVA and β-carotene 1.5 μM
Experimental: The cell culture experiments were carried out as described. Briefly, a subclone of passage 65 HaCaT keratinocytes, selected for differentiation capacity, was used at passages 16 to 23 after subcloning. 2×10^5 cells were seeded per 60 millimeter dish. Starting the following day, the cells were pretreated for 2 days with β-carotene at 1.5 μM, a typical concentration in human plasma after moderate dietary supplementation)
β-carotene-containing medium was prepared as follows. Fresh all-E-β-carotene (DSM Nutritional Products, Kaiseraugst, Switzerland) stock solution in THF (containing 0.025% BHT; Fluka Chemie A G, Switzerland) was diluted 1:2 with ethanol and added to cell culture medium to a final concentration of 1.5 μM β-carotene. The solvent concentration in the medium was 0.5% for all treatments. β-carotene-containing medium was prepared fresh for the daily medium changes.
On day 3 of the experiment, the cells were irradiated with a Hönle sun lamp Sol 500 (270 kJ/m^2; Dr. Hönle, Germany).
Five independent, factorially designed cell irradiation experiments were analyzed by microarray hybridization. For each experiment, one chip was hybridized per treatment condition. GeneChip® analysis was done as described in [132], which is incorporated by reference, as if recited in full herein. Gene regulation by β-carotene and/or UVA was calculated relative to placebo.
Changes in gene expression were included in further analysis only if the change factor was […], and if unpaired t-tests yielded p values≦0.05. Upregulations by a […] are labeled bold, downregulations by a change factor of […] are labeled bold italics. (Table 1) To identify the pathways affected by the treatments functional information on the genes was retrieved from public literature databases.

CC1=C(/C=C/C(C)=C/C=C/C(C)=C/C=C/C=C(C)/C=C/C=C(C)/C=C/C2=C(C)CCCC2(C)C)C(C)(C)CCC1 [β-carotene, All-E-β-carotene]
5-aminolevulinate synthase (Y00451) change factor: 0.41
AAC11 (U83857) change factor: −0.05
AP-2α (M36711) change factor: −0.67
ATF4; activating transcription factor 4 (AL022312) change factor: 0.96
BAXγ (L22475) change factor: −0.34
BAXδ (U19599) change factor: 0.67
BMP2a; bone morphogenetic protein 2a (bmp-2a) (M22489) change factor: 0.16
BPAG1; bullous pemphigoid antigen (M69225) change factor: 0.12
BUB1; mitotic checkpoint kinase (AF053305) change factor: −0.81
C-FOS (V01512) change factor: 2.49
C-FOS (V01512, second entry) change factor: 1.36
C-JUN (J04111) change factor: 0.93
C/EBPβ; NF-IL6 (X52560) change factor: 0.83
C/EBPγ (U20240) change factor: 0.71
C/EBPδ; NF-IL6-β (M83667) change factor: 0.31
CDK activating kinase (X77743) change factor: 0.57
CDK-inhibitor p57KIP2 (KIP2) mrna (U22398) change factor: 0.79
CENP-A; centromere protein-A (U14518) change factor: −1.82
CENP-E; centromere protein-E (Z15005) change factor: −1.44
CENP-F; mitosin (U30872) change factor: −1.22
CEP110; centriole associated protein (AF083322) change factor: −4.18
CIP2; CDKN3 (L25876) change factor: −0.81
CLARP; CFLAR, alternatively spliced (AF005775) change factor: −0.62
COUP-TF II; ARP1; apoA1 regulatory protein (M64497) change factor: 0.81
COX-2, cyclooxygenase-2 (U04636) change factor: 0.2
CRADD; death domain containing protein (U84388) change factor: −0.87
DKK-1; dickkopf-1 (AB020315) change factor: 1.4
DNA ligase III (X84740) change factor: −0.71
DNA polymerase α-subunit (X06745) change factor: −0.63
DNA primase (subunit p58) (X74331) change factor: −0.41
DNA-PK, catalytic subunit (U47077) change factor: −1.06
DSC2; desmocollin type 2a and 2b (X56807) change factor: −0.29
DUSP5 (U15932) change factor: 2.84
DUSP7 (X93921) change factor: 0.99
EGFR; precursor of epidermal growth factor receptor (X00588) change factor: −0.69
ENDOGL-2 (AB020735) change factor: 0.41
ERBB3 precursor; similar to (H06628) change factor: −0.78
ERCC5; excision repair protein (L20046) change factor: −0.95
ERF-2 (X78992) change factor: 0.99
FGFR2; FGF receptor 2 (M87770) change factor: −0.48
FGFR3; FGF receptor (M64347) change factor: −2.58
FRA-1 (X16707) change factor: 0.71
FRA-2 (X16706) change factor: −0.13
GADD34 (U83981) change factor: 2.62
GADD153 (S62138) change factor: 7.64
GDF-1; growth/differentiation factor 1 (gdf-1) (M62302) change factor: −0.43
GEM (U10550) change factor: 3.91
HB-EGF; heparin-binding egf-like growth factor (M60278) change factor: 3.32
HER3; epidermal growth factor receptor (her3) (M34309) change factor: −1.12
HER3; epidermal growth factor receptor (her3) (M34309, second entry) change factor: −1.56
HM74; PAR1-related (D10923) change factor: −0.55
HOXA7 (AJj005814) change factor: −0.52
HOXC6 (S82986) change factor: −0.82
HOXD4 (X59373) change factor: −0.76
ID1 (X77956) change factor: −2.43
ID1 (X77956, second entry) change factor: −4.7
ID3; HEIR1 (AL021154) change factor: −4.35
ID-2H (D13891) change factor: −2.68
ID-4 (AL022726) change factor: −0.49
IEX-1 (S81914) change factor: 0.91
IFIT1; IFI56 (M24594) change factor: −0.61
IFIT1; IFI56 (M24594, second entry) change factor: −0.71
IFIT2; ISG-54K (M14660) change factor: 1.17
IFIT2; ISG-54K (M14660, second entry) change factor: 0.58
IFIT4; IFI60; cig5; RIGG (AF026941) change factor: 5.46
IGF-BP 3; insulin-like growth factor-binding protein-3 gene (M35878) change factor: 1.64
IGF-BP 3; insulin-like growth factor-binding protein-3 gene (M35878, second entry) change factor: 1.73
IL6; Interleukin 6; IFNβα2a (X04430) change factor: 2.29
IL18; IGIF (IFNγ inducing factor) (D49950) change factor: −0.18
ILK; integrin-linked kinase (U40282) change factor: −0.51
IRF-1; interferon regulatory factor 1 (L05072) change factor: 0.29
IRF-7b; interferon regulatory factor 7b (U53831) change factor: 0.49
IRF-9; p48; ISGF3γ (M97935) change factor: −0.67
JUNB (M29039) change factor: −0.72
JUNB (X51345) change factor: −0.7
JUND (X56681) change factor: 3.2
JUND (X56681, second entry) change factor: 1.83
JUND (X56681, third entry) change factor: 1.66
K-RAS (M54968) change factor: −0.64
KINESIN-LIKE 2; HSET (AL021366) change factor: −0.72
KINESIN-LIKE 2; HSET (D14678) change factor: −0.72
KINESIN-LIKE 2; HSET (D14678, second entry) change factor: −1.15
KINESIN-LIKE 5; KNSL5; MKLP-1; mitotic kinesin-like protein-1 (X67155) change factor: −1.04
KINESIN-LIKE 6; KNSL6; MCAK; mitotic centromere-associated kinesin (U63743) change factor: −1.61
KINESIN_LIKE 1; KNSL1; HKSP; EG5 (U37426) change factor: −0.92
KLF4; EZF (epithelial Zn finger) (U70663) change factor: 3.46
KRS-2; stress responsive serine/threonine protein kinase (U60207) change factor: −0.35
KU (p70/p80) (M30938) change factor: −0.64
LIM kinase 2 (limk-2) (D45906) change factor: −0.66
Lekti (AJ228139) change factor: 0.75
MAD3L; mitotic checkpoint kinase (AF053306) change factor: −2.45
MAF-F (AL021977) change factor: 1.71
MAP kinase phosphatase (mkp-2) (U48807) change factor: 1.12
MAPK9; JNK2 (U09759) change factor: −0.57
MAPK14; p38; csaids binding protein (csbp1) (L35263) change factor: −0.53
MAPKK3b; MKK3b (D87116) change factor: 0.62
MAPKK MEK5b (U71087) change factor: −0.7
MAPKKK5; ASK1 (U67156) change factor: −4.7
MEIS2 (AF017418) change factor: −1.3
MMP10 (X07820) change factor: 2.2
MMP-1 (M13509) change factor: −0.22
MMP-3 (X05232) change factor: 0.93
N-RAS (X02751) change factor: −0.01
